Test results reported in patent US10000469B2, “Heat shock protein 70 (hsp-70) receptor ligands” (Duke University, priority 2014, dated 2018).
“Also recorded” adds a separate entry of the source.

Legend:
Her2 and Akt = experiment: Degradation assay (Western blot of client proteins); assay type: cell-based
Experimental: Western Blotting: SDS-PAGE was carried out using Criterion™ Cell system using pre-casted 4-20% or 4-15% Criterion™ Tris-HCl gels (BioRad, Hercules, Calif.). For Western blotting gels were run at 200V for 1 hour using the PowerPac basic power supply (BioRad, Hercules, Calif.). Next, gels were transferred to nitrocellulose for blotting at 100V for 1 hour (Fisher Scientific, Waltham, Mass.). Nitrocellulose membranes were blocked with 5% dry non-fat milk in phosphate-buffered saline (PBS) with 0.01% Tween-20 for 1 hour at room temperature. Membranes were incubated with primary antibodies (1:1000 dilution) overnight at 4° C. The next day membranes were washed 3× in PBS-Tween, incubated for 1 hour at room temperature with secondary antibodies, and further washed 3× in PBS-Tween. ECL Plus Western blotting reagent (Pierce Biotechnology, Rockford, Ill.) was used to detect antibodies. GFP, Her2, Akt, Hsp70, Hsc70, Grp78, Grp75, and Hsp90 primary antibodies and all associated secondary antibodies were purchased from Cell Signaling Technology (Danvers, Mass.).
Degradation Assay: The specified cells were seeded overnight and then treated with the indicated concentration of compound for 24 hours. The cells were then harvested and subjected to analysis by Western blot.

BT474 = experiment: Cell proliferation, BT474; assay type: cell-based
Experimental: (§1) Cell Proliferation: Cell proliferation was determined using a Hoechst stain (Sigma, St. Louis, Mo.) to quantify DNA. 5,000 cells of the designated cell line were plated in 96 well plates and treated the next day, designated as time point 0, with the indicated concentration of the specified compound maintained for the duration of the assay. At the indicated time points the media was removed and plated frozen at −80° C. Double distilled H2O was then added and the plates were incubated at 37° C. for 1 hour. After 1 hour the plates were frozen at −80° C. After freezing the plates were thawed and Hoechst stain was diluted 1:1000 in THE buffer (10 mM Tris, 2M NaCl, 1 mM Na2EDTA). The final fluorescence was measured on the Victor X2 plate reader at 355/460 nm, and cell proliferation was determined with the formula: % Cell Proliferation=100×(Sample fluorescence−background fluorescence)/(Control fluorescence−background fluorescence).

MCF7 = experiment: Cell proliferation, MCF7; assay type: cell-based; details: MCF7
Experimental: as §1

SkBr3 = experiment: Cell proliferation, SkBr3; assay type: cell-based; details: SkBr3
Experimental: as §1

[1] = system: LnCaP prostate cancer cell lines; experiment: Cell proliferation, LNCaP; assay type: cell-based
Experimental: as §1

RWPE1 = experiment: Cell proliferation, RWPE1; assay type: cell-based; details: non tumorigenic RWPE1
Experimental: as §1

NF639 = experiment: Cell proliferation, NF639; assay type: cell-based, mouse
Experimental: as §1

HS-72 in vivo MTD = details: wild-type mice, IP biweekly for 35 days, up to 30 mg/kg
Experimental: HS-72 in vivo MTD and blood workup: The 5 cohorts consisted of 3 mice each given HS-72 BiW and administered IP in DMSO at 1, 5, 10, 20 and 30 mpk using female FVBs aged to 10 weeks. Body Mass was measured weekly and the mice were monitored for signs of toxicity as per MP1U standard protocol. For blood analysis, 4 mice were injected IP with HS-72 on day 1 and 4, with blood drawn on day 5. 4 mice receiving no treatment were used as controls.

Hsp70i [2] = target: T1, Hsp70i (Homo sapiens, UniProt P0DMV8); experiment: HS-72 affinity resin pull-down from HEK293T lysate, Hsp70i; assay type: binding; design: endogenous in cells; host or cells: HEK 293T; details: free HS-72 incubated with lysate
T1 sequence (P0DMV8 whole entry): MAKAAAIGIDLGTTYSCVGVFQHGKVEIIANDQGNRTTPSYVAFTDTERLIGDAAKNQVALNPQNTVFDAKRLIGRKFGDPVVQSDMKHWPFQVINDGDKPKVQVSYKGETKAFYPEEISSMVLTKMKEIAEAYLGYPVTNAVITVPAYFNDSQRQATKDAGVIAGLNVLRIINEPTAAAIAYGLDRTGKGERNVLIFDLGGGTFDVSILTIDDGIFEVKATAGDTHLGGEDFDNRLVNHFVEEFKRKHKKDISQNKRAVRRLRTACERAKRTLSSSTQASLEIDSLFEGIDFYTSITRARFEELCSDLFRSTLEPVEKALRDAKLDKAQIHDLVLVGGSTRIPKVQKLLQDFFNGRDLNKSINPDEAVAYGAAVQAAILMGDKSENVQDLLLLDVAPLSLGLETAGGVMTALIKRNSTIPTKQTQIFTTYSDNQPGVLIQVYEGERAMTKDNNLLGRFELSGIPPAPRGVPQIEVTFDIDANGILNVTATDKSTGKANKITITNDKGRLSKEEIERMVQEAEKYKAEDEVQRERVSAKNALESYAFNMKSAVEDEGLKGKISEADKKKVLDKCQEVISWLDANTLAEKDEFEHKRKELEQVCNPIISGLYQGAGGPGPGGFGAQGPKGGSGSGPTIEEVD
Experimental: HS-72 specifically targets Hsp70i over other members of the Hsp70 superfamily. To test the selectivity of the HS-72 scaffold against the broader purinome, HEK 293T cell extracts or pig bladder tissue lysates were applied to the ATP resin and eluted with HS-72, as described for FLECS. The eluates were characterized by SDS-PAGE, silver stain, and MS analysis. […] To more thoroughly determine the specificity of HS-72 for Hsp70i, the HEK 293T eluates were also analyzed for other Hsp70 family members Hsc70, Grp78, and Grp75, as well as Hsp90 by Western blot. […] Next, an affinity resin was synthesized using the HS-72 scaffold, similar to a previously described affinity resin targeting Hsp90 [Hughes et al. (2012). […] Bioorganic & medicinal chemistry 20, 3298-3305]. HEK 293T cell lysate was applied to the resin and subjected to several washes. To confirm selectivity of the HS-72 affinity resin for Hsp70i, free HS-72 was incubated with lysate to inhibit Hsp70i binding to the affinity resin. The linker on the resin was cleaved using sodium dithionite and the samples were subjected to SDS-PAGE and analyzed by Western blot, silver stain, and mass spectrometry. […] These studies identified HS-72 as the first example of a small molecule that can selectively discriminate Hsp70i from other members of the Hsp70 superfamily.

Hsp70i [3] = target: T1, Hsp70i; experiment: Partial proteolysis of Hsp70i with trypsin; design: Full length Hsp70 (black arrow) and tryptic fragments (blue arrows); His tag (cleaved yes); made in house; details: 100 uM compound, silver stain
Experimental: Mass Spectrometry: Tryptic peptides were subjected to matrix-assisted laser desorption-ionization mass spectrometry (MALDI-MS) on an ABSCIEX TOF/TOF 5800 mass spectrometer. Positive mode time of flight was used to identify peptides, and individual peptides were sequenced by MS/MS. All sequence and peptide fingerprint data was searched using the UniProt database.
Partial Proteolysis: Hsp70i (8 μg for SDS-PAGE analysis, 2 μg for mass spec analysis) was incubated with 1 mM ATP, 1 mM ADP, 100 uM HS72, 100 uM HS72+1 mM ATP, or 100 uM HS72+1 mM ADP for 30 min. at room temperature. Hsp70i was digested by adding 0.1 μg of trypsin (Promega, Madison, Wis.) per 2 μg of protein and was quenched by addition of 25% TFA for mass spec analysis or addition of 5×SDS loading buffer and boiling for SDS-PAGE analysis at 2 hours, or 24 hours. Gels were visualized by silver stain.

[4] = HS-72 in combination with HS-10

For `CCCn1c(NC(=O)[C@H]2CCCN(c3cnccn3)C2)nc2ccccc21` [HS-72, (S)—N-(1-propyl-1H-benzo[d]imidazol-2-yl)-1-(pyrazin-2-yl)piperidine-3-carboxamide], the Akt degradation (Her2 and Akt; [4]) was “significant Akt degradation”, the “levels of Her2” value (Her2 and Akt; [4]) was “completely abolished” and the “Akt and Her2 expression” value (Her2 and Akt; compound alone, BT474 breast cancer cells) was “dose dependent reduction”. The cell proliferation (BT474) was “inhibits proliferation”, the cell proliferation (MCF7) was “inhibits proliferation” and the “cell proliferation, combination with HS-10” value (MCF7) was “additive effect”. For the same molecule, the “cell proliferation, combination with HS-10” value (MCF7; listed as HS72) was “synergism”, the cell proliferation (SkBr3) was “inhibits proliferation” and the “cell proliferation, combination with HS-10” value (SkBr3) was “additive effect”. For the same molecule, the “cell proliferation, combination with HS-10” value (SkBr3; listed as HS72) was “synergism”, the cell proliferation [1] was “inhibits proliferation” and the cell proliferation (RWPE1) was “insensitive; also recorded: only inhibited at the highest concentration tested”. The “cell proliferation, combination with HS-10” value (NF639) was “synergistic inhibition”, the cell proliferation (NF639; 25 uM and 50 uM at 24, 48, and 72 hours) was “inhibits proliferation” and the “tolerability in dose escalation” value (HS-72 in vivo MTD) was “no adverse events, reduction in body weight, or altered behavior”. The “competition of Hsp70i binding to the affinity resin by free compound” value (Hsp70i [2]) was “able to block this interaction” and the “proteolytic pattern of Hsp70i” value (Hsp70i [3]) was “profound difference in the proteolytic pattern”.
